Test results as given in ChEMBL document CHEMBL3217548, “Biological activity and DNA binding studies of 2-substituted benzimidazo[1,2-a]quinolines bearing different amino side chains” (Medchemcomm, 2013).
Active and inactive are the calls of the source. No cut-off for these calls is given here.

Tests used:
Calf thymus DNA [1] = experiment: Binding affinity to calf thymus DNA assessed as bathochromic shift at 20 uM by UV/visible spectrophotometry; format: nucleic-acid assay; conditions: Bos taurus
Calf thymus DNA [2] = experiment: Binding affinity to calf thymus DNA assessed as hypochromic shift at 20 uM by UV/visible spectrophotometry; format: nucleic-acid assay; conditions: Bos taurus
[3] = Binding affinity to DNA (unknown origin) at 1 to 5 uM after 15 mins by DNA footprinting assay
Homo sapiens = species: Homo sapiens; experiment: Inhibition of human DNA topoisomerase 2 assessed as inhibition of DNA cleavage
[4] = target: T1, DNA topoisomerase 1 (Homo sapiens) (UniProt P11387); experiment: Inhibition of human DNA topoisomerase 1 assessed as inhibition of DNA cleavage
T1 sequence (whole entry): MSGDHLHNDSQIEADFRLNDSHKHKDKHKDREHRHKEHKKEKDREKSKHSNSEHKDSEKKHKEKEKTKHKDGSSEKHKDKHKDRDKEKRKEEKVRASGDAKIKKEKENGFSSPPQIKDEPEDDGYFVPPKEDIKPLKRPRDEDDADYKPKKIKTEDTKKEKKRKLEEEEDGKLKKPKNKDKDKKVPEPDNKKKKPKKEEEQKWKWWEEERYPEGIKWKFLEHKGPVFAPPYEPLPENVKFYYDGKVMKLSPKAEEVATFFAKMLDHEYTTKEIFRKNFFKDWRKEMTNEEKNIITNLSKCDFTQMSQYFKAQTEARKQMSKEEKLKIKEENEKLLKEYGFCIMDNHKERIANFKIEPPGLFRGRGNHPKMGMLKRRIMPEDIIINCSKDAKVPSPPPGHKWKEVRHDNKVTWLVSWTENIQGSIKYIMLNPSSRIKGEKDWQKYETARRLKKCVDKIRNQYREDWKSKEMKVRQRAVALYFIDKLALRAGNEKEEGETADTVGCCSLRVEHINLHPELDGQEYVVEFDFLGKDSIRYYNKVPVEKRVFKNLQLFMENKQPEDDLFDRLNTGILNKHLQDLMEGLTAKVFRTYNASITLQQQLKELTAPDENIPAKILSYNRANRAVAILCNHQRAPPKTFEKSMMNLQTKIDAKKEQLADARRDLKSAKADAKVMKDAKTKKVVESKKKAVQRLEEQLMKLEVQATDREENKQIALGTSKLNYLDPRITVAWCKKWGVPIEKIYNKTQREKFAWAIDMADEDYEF

Escherichia coli [5] = experiment: Binding affinity to Escherichia coli pUC19 plasmid assessed as nicked DNA at 0.1 to 5 uM by ethidium bromide staining-based agarose gel electrophoresis
Escherichia coli [6] = experiment: Binding affinity to Escherichia coli pUC19 plasmid assessed as induction of topoisomerase1-mediated DNA relaxation at 2 uM incubated for 45 mins prior to topoisomerase1 addition by agarose gel electrophoresis
Calf thymus DNA [7] = experiment: Binding affinity to calf thymus DNA assessed as DNA intercalation at 1 to 50 uM by circular dichroism analysis; format: nucleic-acid assay; conditions: Bos taurus
Calf thymus DNA [8] = experiment: Binding affinity to calf thymus DNA assessed as change in melting temperature at 0.5 drug/DNA ratio by spectrophotometry; format: nucleic-acid assay; conditions: Bos taurus
[9] = Drug uptake in human H460 cell perinuclear region at 10 uM after 2 hrs by fluorescence microscopy; format: ADME, cell-based; conditions: h460, 2 h
[10] = Drug uptake in human H460 cell cytoplasm at 10 uM after 2 hrs by fluorescence microscopy; format: ADME, cell-based; conditions: h460, 2 h
HCT-116 [11] = experiment: Cell cycle arrest in human HCT116 cells assessed as accumulation at G2/M phase at 5 uM after 48 hrs by propidium iodide staining-based FACS analysis (reference value: 31 +/- 0.1 %); format: functional
HCT-116 [12] = experiment: Cell cycle arrest in human HCT116 cells assessed as accumulation at G2/M phase at 0.5 uM after 48 hrs by propidium iodide staining-based FACS analysis (reference value: 31 +/- 0.1 %); format: functional
HCT-116 [13] = experiment: Cell cycle arrest in human HCT116 cells assessed as accumulation at G2/M phase at 5 uM after 24 hrs by propidium iodide staining-based FACS analysis (reference value: 28 +/- 1 %); format: functional
HCT-116 [14] = experiment: Cell cycle arrest in human HCT116 cells assessed as accumulation at G2/M phase at 0.5 uM after 24 hrs by propidium iodide staining-based FACS analysis (reference value: 28 +/- 1 %); format: functional
HCT-116 [15] = experiment: Cell cycle arrest in human HCT116 cells assessed as accumulation at S phase at 5 uM after 48 hrs by propidium iodide staining-based FACS analysis (reference value: 32 +/- 1 %); format: functional
HCT-116 [16] = experiment: Cell cycle arrest in human HCT116 cells assessed as accumulation at S phase at 0.5 uM after 48 hrs by propidium iodide staining-based FACS analysis (reference value: 32 +/- 1 %); format: functional
HCT-116 [17] = experiment: Cell cycle arrest in human HCT116 cells assessed as accumulation at S phase at 5 uM after 24 hrs by propidium iodide staining-based FACS analysis (reference value: 39 +/- 0.2 %); format: functional
HCT-116 [18] = experiment: Cell cycle arrest in human HCT116 cells assessed as accumulation at S phase at 0.5 uM after 24 hrs by propidium iodide staining-based FACS analysis (reference value: 39 +/- 0.2 %); format: functional
HCT-116 [19] = experiment: Cell cycle arrest in human HCT116 cells assessed as accumulation at G1 phase at 5 uM after 48 hrs by propidium iodide staining-based FACS analysis (reference value: 37 +/- 2 %); format: functional
HCT-116 [20] = experiment: Cell cycle arrest in human HCT116 cells assessed as accumulation at G1 phase at 0.5 uM after 48 hrs by propidium iodide staining-based FACS analysis (reference value: 37 +/- 2 %); format: functional
HCT-116 [21] = experiment: Cell cycle arrest in human HCT116 cells assessed as accumulation at G1 phase at 5 uM after 24 hrs by propidium iodide staining-based FACS analysis (reference value: 33 +/- 1 %); format: functional
HCT-116 [22] = experiment: Cell cycle arrest in human HCT116 cells assessed as accumulation at G1 phase at 0.5 uM after 24 hrs by propidium iodide staining-based FACS analysis (reference value: 33 +/- 1 %); format: functional
HCT-116 [23] = experiment: Cell cycle arrest in human HCT116 cells assessed as accumulation at subG0/G1 phase at 5 uM after 48 hrs by propidium iodide staining-based FACS analysis (reference value: 4 +/- 1 %); format: functional
HCT-116 [24] = experiment: Cell cycle arrest in human HCT116 cells assessed as accumulation at subG0/G1 phase at 0.5 uM after 48 hrs by propidium iodide staining-based FACS analysis (reference value: 4 +/- 1 %); format: functional
HCT-116 [25] = experiment: Cell cycle arrest in human HCT116 cells assessed as accumulation at subG0/G1 phase at 5 uM after 24 hrs by propidium iodide staining-based FACS analysis (reference value: 4 +/- 1 %); format: functional
HCT-116 [26] = experiment: Cell cycle arrest in human HCT116 cells assessed as accumulation at subG0/G1 phase at 0.5 uM after 24 hrs by propidium iodide staining-based FACS analysis (reference value: 4 +/- 1 %); format: functional
MCF7 = experiment: Cytotoxicity against human MCF7 cells after 72 hrs by MTT assay; format: functional, cell-based; conditions: MCF7, 72 h
[27] = Cytotoxicity against human H460 cells after 72 hrs by MTT assay; format: functional, cell-based; conditions: NCI-H460, 72 h
HCT-116 [28] = experiment: Cytotoxicity against human HCT116 cells after 72 hrs by MTT assay; format: functional, cell-based; conditions: HCT-116, 72 h
DNA = experiment: Induction of DNA damage in plasmid DNA in E. coli S30 cell-free system assessed as inhibition of EGFP translation at 50 uM after 1 hr by fluorescence assay

For C[N+]1(C)CCN(c2ccc3cc(C#N)c4nc5ccccc5n4c3c2)CC1.[I-], the Activity (Calf thymus DNA [1]) was “Active”, the Activity (Calf thymus DNA [2]) was “Active” and the Activity [3] was “Active”. The Activity (Homo sapiens) was “inactive”, the Activity [4] was “inactive” and the Activity (Escherichia coli [5]) was “Active”. The Activity (Escherichia coli [6]) was “Active”, the Activity (Calf thymus DNA [7]) was “Active” and the ΔTm (Calf thymus DNA [8]) was 15.4 °C. The Drug uptake [9] was “Active”, the Drug uptake [10] was “Active” and the Activity (HCT-116 [11]) was 28%. The Activity (HCT-116 [12]) was 31%, the Activity (HCT-116 [13]) was 29% and the Activity (HCT-116 [14]) was 32%. The Activity (HCT-116 [15]) was 29%, the Activity (HCT-116 [16]) was 32% and the Activity (HCT-116 [17]) was 33%. The Activity (HCT-116 [18]) was 36%, the Activity (HCT-116 [19]) was 43% and the Activity (HCT-116 [20]) was 37%. It also gave an Activity (HCT-116 [21]) of 38%, an Activity (HCT-116 [22]) of 32% and an Activity (HCT-116 [23]) of 5%. For the same compound, the Activity (HCT-116 [24]) was 6%, the Activity (HCT-116 [25]) was 7% and the Activity (HCT-116 [26]) was 6%. The IC50 (MCF7) was 2400 nM, the IC50 [27] was 2000 nM and the IC50 (HCT-116 [28]) was 600 nM. The inhibition at 50 µM (DNA) was 45%.
